Laboratory results taken from US12577227B2, “WDR5 inhibitors and modulators” (Vanderbilt University, priority 2019, dated 2026).

Tested on: MV4:11 human cancer cell lines
Assay: Cellular viability / anti-proliferative activity (CellTiter-Glo)
Format: cell-based
Settings: MV4-11, 120 h, MV-4-11 cells, 5 day protocol, mean of minimum two replicates, read-out: GI50 on cellular proliferation of MV4:11 human cancer cell lines
Procedure: Cellular Viability of Human Tumor Cell Lines
Anti-Proliferative Activity Using MLL-Harboring Cell Lines.
MV-4-11 and K562 cells are grown in IMDM media supplemented with 10% FBS and […], Molm-13 cells are cultured in RPMI-1640 media supplemented with 10% FBS and 1% o penicillin/streptomycin. Viability assays are performed by dispensing 200 cells at 7200 cells/mL into each well of an opaque 384-well plate and adding compounds at the indicated concentrations in a final volume of 32 μL and a final concentration of DMSO of 0.3% for all samples. A certain range of compound concentrations is made through a series of 2-fold dilutions starting 30 μM at the highest, total 22 dilutions. After a set incubation period, 5 day protocol, the viability of cells in each well is assessed using the CellTiter-Glo assay (Promega), read on a 96 Microplane Luminometer (Cytation 3, BioTek). Serial dilutions of each cell type are performed in all assays to generate standard curves and the final densities of cells are determined within the dynamic range of the instrument. GI50 values are calculated based on XLfit software (IDBS, Guildford, UK) with Sigmoidal Dose-Response Model. Each compound is tested in minimum of two replicates. Data are expressed as mean.

Compound | GI50 [nM]
Cc1ccnc(CN2CCOc3c(cc(Cn4ccn(C)c4=N)cc3-c3ccc(F)cc3C)C2=O)c1 [Example 11, 9-(4-Fluoro-2-methylphenyl)-7-((2-imino-3-methyl-2,3-dihydro-1H-imidazol-1-yl)methyl)-4-((4-methylpyridin-2-yl)methyl)-3,4-dihydrobenzo[f][1,4]oxazepin-5(2H)-one] | 11
COc1cc(Cn2cnc3c(-c4cn(C)nc4C(F)(F)F)cc(Cn4ccn(C)c4=N)cc3c2=O)cc(OC)c1 [Example 20, 3-(3,5-Dimethoxybenzyl)-6-((2-imino-3-methyl-2,3-dihydro-1H-imidazol-1-yl)methyl)-8-(1-methyl-3-(trifluoromethyl)-1H-pyrazol-4-yl)quinazolin-4(3H)-one] | 630
COc1cc(Cn2cnc3c(-c4ccc(F)cc4C)cc(Cn4ccn(C)c4=N)cc3c2=O)cc(OC)c1 [Example 1, 3-(3,5-Dimethoxybenzyl)-8-(4-fluoro-2-methylphenyl)-6-((2-imino-3-methyl-2,3-dihydro-1H-imidazol-1-yl)methyl)quinazolin-4(3H)-one] | 150
Cc1cc(C)nc(CN2CCOc3c(cc(Cn4cnn(C)c4=N)cc3-c3cn(C)nc3C(F)(F)F)C2=O)c1 [Example 31, 4-((4,6-dimethylpyridin-2-yl)methyl)-7-((5-imino-1-methyl-1,5-dihydro-4H-1,2,4-triazol-4-yl)methyl)-9-(1-methyl-3-(trifluoromethyl)-1H-pyrazol-4-yl)-3,4-dihydrobenzo[f][1,4]oxazepin-5(2H)-one] | 231
COc1cc(CN2CC(=O)Nc3c(cc(Cn4ccoc4=N)cc3-c3ccc(F)cc3C)C2=O)cc(OC)c1 [Example 30, 4-(3,5-Dimethoxybenzyl)-9-(4-fluoro-2-methylphenyl)-7-((2-iminooxazol-3(2H)-yl)methyl)-3,4-dihydro-1H-benzo[e][1,4]diazepine-2,5-dione] | 190
COc1cc(CN2CCOc3c(cc(CNc4nocc4C)cc3-c3ccc(F)cc3C)C2=O)cc(OC)c1 [Example 7, 4-(3,5-Dimethoxybenzyl)-9-(4-fluoro-2-methylphenyl)-7-(((4-methylisoxazol-3-yl)amino)methyl)-3,4-dihydrobenzo[f][1,4]oxazepin-5(2H)-one] | > 940
COc1cc(CN2CC(=O)Nc3c(cc(Cn4ccnc4C)cc3-c3ccc(F)cc3C)C2=O)cc(OC)c1 [Example 28, 4-(3,5-Dimethoxybenzyl)-9-(4-fluoro-2-methylphenyl)-7-((2-methyl-1H-imidazol-1-yl)methyl)-3,4-dihydro-1H-benzo[e][1,4]diazepine-2,5-dione] | 232
Cc1ccnc(CN2CCOc3c(cc(Cn4ccnc4C)cc3-c3ccc(F)cc3C)C2=O)c1 [Example 25, 9-(4-Fluoro-2-methylphenyl)-7-((2-methyl-1H-imidazol-1-yl)methyl)-4-((4-methylpyridin-2-yl)methyl)-3,4-dihydrobenzo[f][1,4]oxazepin-5(2H)-one] | 300

The next lines start with the values.

GI50 [nM] | Compound
730 | Cc1ccnc(CN2C[C@H](C)Oc3c(cc(Cn4ccnc4C)cc3-c3cn(C)nc3C(F)(F)F)C2=O)c1 [Example 39, (S)-2-Methyl-7-((2-methyl-1H-imidazol-1-yl)methyl)-9-(1-methyl-3-(trifluoromethyl)-1H-pyrazol-4-yl)-4-((4-methylpyridin-2-yl)methyl)-3,4-dihydrobenzo[f][1,4]oxazepin-5(2H)-one]
548 | Cc1cc(C)nc(CN2CCOc3c(cc(Cn4ccnc4C)cc3-c3cccnc3C)C2=O)c1 [Example 44, 4-((4,6-Dimethylpyridin-2-yl)methyl)-7-((2-methyl-1H-imidazol-1-yl)methyl)-9-(2-methylpyridin-3-yl)-3,4-dihydrobenzo[f][1,4]oxazepin-5(2H)-one]
29 | COc1ccc2c(c1)C(N1CCOc3c(cc(Cn4ccnc4C)cc3-c3cn(C)nc3C(F)(F)F)C1=O)CCC2 (stereo not shown) [Example 57, 4-(7-Methoxy-1,2,3,4-tetrahydronaphthalen-1-yl)-7-((2-methyl-1H-imidazol-1-yl)methyl)-9-(1-methyl-3-(trifluoromethyl)-1H-pyrazol-4-yl)-3,4-dihydrobenzo[f][1,4]oxazepin-5(2H)-one]
157 | Cc1cc(C)nc(CN2CCOc3c(cc(Cn4ccnc4C)cc3-c3ccccc3C)C2=O)c1 [Example 45, 4-((4,6-Dimethylpyridin-2-yl)methyl)-7-((2-methyl-1H-imidazol-1-yl)methyl)-9-(o-tolyl)-3,4-dihydrobenzo[f][1,4]oxazepin-5(2H)-one]
39 | COc1cc(OC)c2nc(C)cc(N3CCOc4c(cc(Cn5ccnc5)cc4-c4cn(C)nc4C(F)(F)F)C3=O)c2c1 [Example 69, 7-((1H-imidazol-1-yl)methyl)-4-(6,8-dimethoxy-2-methylquinolin-4-yl)-9-(1-methyl-3-(trifluoromethyl)-1H-pyrazol-4-yl)-3,4-dihydrobenzo[f][1,4]oxazepin-5(2H)-one]
306 | COc1cc(CN2C[C@H](C)Oc3c(cc(Cn4ccn(C)c4=N)cc3-c3ccc(F)cc3C)C2=O)cc(OC)c1 [Example 35, (S)-4-(3,5-Dimethoxybenzyl)-9-(4-fluoro-2-methylphenyl)-7-((2-imino-3-methyl-2,3-dihydro-1H-imidazol-1-yl)methyl)-2-methyl-3,4-dihydrobenzo[f][1,4]oxazepin-5(2H)-one]
95 | Cc1cc(C)nc(CN2CCOc3c(cc(Cn4ccnc4C)cc3-c3ccc(F)cc3Cl)C2=O)c1 [Example 48, 9-(2-Chloro-4-fluorophenyl)-4-((4,6-dimethylpyridin-2-yl)methyl)-7-((2-methyl-1H-imidazol-1-yl)methyl)-3,4-dihydrobenzo[f][1,4]oxazepin-5(2H)-one]
158 | CCc1nccn1Cc1cc2c(c(-c3cn(CC)nc3C(F)(F)F)c1)OCCN([C@H](c1cc(OC)ccn1)C1CC1)C2=O [Example 61, (S)-4-(Cyclopropyl(4-methoxypyridin-2-yl)methyl)-7-((2-ethyl-1H-imidazol-1-yl)methyl)-9-(1-ethyl-3-(trifluoromethyl)-1H-pyrazol-4-yl)-3,4-dihydrobenzo[f][1,4]oxazepin-5(2H)-one]
45 | Cc1cc(C)nc(CN2CCOc3c(cc(Cn4ccnc4C)cc3-c3cc(C)ccc3C)C2=O)c1 [Example 49, 9-(2,5-Dimethylphenyl)-4-((4,6-dimethylpyridin-2-yl)methyl)-7-((2-methyl-1H-imidazol-1-yl)methyl)-3,4-dihydrobenzo[f][1,4]oxazepin-5(2H)-one]
772 | CCOC(=O)c1cc(CC)cc2c(N3CCOc4c(cc(Cn5ccnc5)cc4-c4cn(C)nc4C(F)(F)F)C3=O)ccnc12 [Example 66, Ethyl 4-(7-((1H-imidazol-1-yl)methyl)-9-(1-methyl-3-(trifluoromethyl)-1H-pyrazol-4-yl)-5-oxo-2,3-dihydrobenzo[f][1,4]oxazepin-4(5H)-yl)-6-ethylquinoline-8-carboxylate]
31 | COc1ccnc([C@H](C)N2CCOc3c(cc(Cn4ccnc4C)cc3-c3cn(C)nc3C(F)(F)F)C2=O)c1 [Example 47, (S)-4-(1-(4-Methoxypyridin-2-yl)ethyl)-7-((2-methyl-1H-imidazol-1-yl)methyl)-9-(1-methyl-3-(trifluoromethyl)-1H-pyrazol-4-yl)-3,4-dihydrobenzo[f][1,4]oxazepin-5(2H)-one]
